Values after ≈ are worked out from the molar mass of the structure shown.
Tests used:
S. aureus = assay: Antibiotic activity, MIC; assay type: cell-based; details: Staphylococcus aureus
E. coli = assay: Antibiotic activity, MIC; assay type: cell-based; details: Escherichia coli
[1] = system: Stage 59-60 Xenopus tadpoles; assay: Xenopus tadpole assay; assay type: in vivo, Xenopus laevis; details: 10 μg/ml in water
Text: A newly developed assay employing tadpoles, preferably Xenopus laevis Stages 59-60, were employed to study the effect of a compound by monitoring capillary occlusion in the tadpole's tail. […] The compounds of the invention affect the shape, viability and integrity of the embryonic tissues while not affecting the adult tissues, providing a powerful, highly specific screen. For example, substances that destroy all of the animal's epithelium, both adult and embryonic, could be regarded as toxic.
In this assay, tadpoles are introduced into Petri dishes containing a solution of the test compound in distilled water, preferably about 100 ml. The preferred concentration of the test compound is from about 1 μg/ml to about 10 μg/ml. The volume of liquid is sufficient for the animal to swim freely and drink from the solution. Thus, the effect observed results from oral absorption and subsequent systemic distribution of the agent. If the volume of liquid is not sufficient to permit oral intake, the effects that are observed would result from absorption through the surface epithelium. Thus, this simple assay can identify if an compound has characteristics of oral availability.
After an amount of time, typically about 60 minutes, the occlusion of blood flow through capillaries in the tadpole's tail are observed under an inverted microscope at a magnification of roughly 100×.
The tadpole assay described above provides an advantageous way to determine the pharmacological targets of each steroid when introduced into a mammal, and to determine pharmacological categories into which synthetic compounds belong. In the assay, each of the steroids was dissolved in 100 ml of distilled water at a concentration of 10 μg/ml. Stage 59-60 Xenopus tadpoles were introduced and evaluated by light microscopy and gross observation 1 hour later.

[2] = system: human microvascular cells; assay: Endothelial cord formation assay; assay type: cell-based; as to Effect on endothelial cord formation: key: + = Inhibition of angiogenesis; − = No inhibition of angiogenesis; T = Toxic; *= cell rounding @ 10 µg/ml
Text: Endothelial cells have the capacity in vitro to form tubular aggregates resembling capillaries in various early stages of formation. This conversion occurs under relatively specific conditions, in which essential growth factors along with an effective substratum are provided. It has been shown that both the interaction of growth factors with the endothelial cell and its attachment to a substratum activate the NHE. The activation of this exchanger is believed to be required for subsequent morphologic transformation of the endothelial cell into a multicellular tubular structure.
To assess the effect of compounds on the cord-like structures formed by human microvascular cells when plated in the presence of VGEF (Vascular Endothelial Growth Factor) and basic fibroblast growth factor on a collagen matrix, a standard cord formation assay was used.

[3] = system: vitelline capillaries of 3- to 5-day chick embryo; assay: Chick embryo vitelline capillary regression assay; assay type: in vivo; parameters: key to Vascular reactivity (capillary regression): + = Vascular reactivity; 0 = No vascular reactivity; +/− = Equivocal reactivity; details: 60 minutes
Procedure: Using the chick embryo vitelline capillaries assay, compounds were tested for their ability to induce capillary regression. Each compound was applied in 0.1 ml of 15% Ficol 400 and PBS onto the embryo, and vascular regression was assessed after 60 minutes.
The 3-day chick embryo consists of an embryonic disc from which numerous vessels emerge and return, forming a “figure 8”-shaped structure—the embryo in the center with vascular loops extending outward over both poles. […] Following a lag period of around 15 minutes, the constriction of continuity between capillary and secondary vessels, generally on the “venous” side, was observed. Continued pulsatile blood flow progressed, resulting in a “swelling” of the blind tube, followed by a pinching off of the remaining connection and formation of an enclosed vascular sac resembling a “blood island.” This process progressed until only the largest vessels remained intact.

CC(CCC(=O)O)[C@H]1CCC2C3C(CC[C@@]21C)[C@@]1(C)CC[C@@H](NCCCNCCCCNCCCN)C[C@H]1C[C@H]3O (stereo partly drawn) [drawing 72]
MIC (S. aureus): 8 µg/mL (≈ 13.9 µM)

COC(=O)CCC(C)[C@H]1CCC2C3C(CC[C@@]21C)[C@@]1(C)CC[C@@H](NCCN)C[C@H]1C[C@H]3O (stereo partly drawn) [drawing 70]
MIC (E. coli): 16 µg/mL (≈ 35.7 µM) | MIC (S. aureus): 16 µg/mL (≈ 35.7 µM)

CC(CCC(=O)C(C)(C)OS(=O)(=O)O)[C@H]1CCC2C3C(CC[C@@]21C)[C@@]1(C)CC[C@H](NCCCNCCCCN)C[C@@H]1C[C@H]3O (stereo partly drawn) [FX1A]
Pharmacological response observed in tadpole ([1]; about 1 hour): fecal elimination is dramatically increased

CC(CCC(=O)O)[C@H]1CCC2C3C[C@@H](O)[C@H]4C[C@@H](NCCCNCCCCNCCCN)CC[C@]4(C)C3CC[C@@]21C (stereo partly drawn) [Compound 467]
Effect on endothelial cord formation ([2]; 1.0 μg/ml): − | Effect on endothelial cord formation ([2]; 10.0 μg/ml): −

CC(CCC(=O)O)[C@H]1CCC2C3C(CC[C@@]21C)[C@@]1(C)CC[C@@H](NCCCNCCCCN)C[C@@H]1C[C@H]3O (stereo partly drawn) [Compound 382]
Vascular reactivity (capillary regression) ([3]; 0.001 μg applied): 0 | Vascular reactivity (capillary regression) ([3]; 0.01 μg applied): 0 | Vascular reactivity (capillary regression) ([3]; 0.1 μg applied): 0 | Vascular reactivity (capillary regression) ([3]; 1 μg applied): + | Vascular reactivity (capillary regression) ([3]; 10 μg applied): +

COC(=O)CCC(C)[C@H]1CCC2C3C(CC[C@@]21C)[C@@]1(C)CC[C@H](NCCCNCCCCNCCCN)C[C@H]1C[C@H]3O (stereo partly drawn) [Compound 411]
Vascular reactivity (capillary regression) ([3]; 0.001 μg applied): 0 | Vascular reactivity (capillary regression) ([3]; 0.01 μg applied): 0 | Vascular reactivity (capillary regression) ([3]; 0.1 μg applied): 0 | Vascular reactivity (capillary regression) ([3]; 1 μg applied): +/− | Effect on endothelial cord formation ([2]; 0.1 μg/ml): − | Effect on endothelial cord formation ([2]; 1.0 μg/ml): − | Effect on endothelial cord formation ([2]; 10.0 μg/ml): +

CC(CCC(=O)O)[C@H]1CCC2C3CC[C@@H]4C[C@H](NCCCNCCCCNCCCN)CC[C@]4(C)C3C[C@H](O)[C@@]21C (stereo partly drawn) [Compound 449]
Effect on endothelial cord formation ([2]; 1.0 μg/ml): −

CC(C)CCCC(C)[C@H]1CCC2C3C(CC[C@@]21C)[C@@]1(C)CC[C@H](N)C[C@@H]1C[C@H]3O (stereo partly drawn) [Compound 1364]
Vascular reactivity (capillary regression) ([3]; 0.001 μg applied): 0 | Vascular reactivity (capillary regression) ([3]; 0.01 μg applied): 0 | Vascular reactivity (capillary regression) ([3]; 0.1 μg applied): 0 | Vascular reactivity (capillary regression) ([3]; 1 μg applied): + | Vascular reactivity (capillary regression) ([3]; 10 μg applied): +

CC(CCC(=O)O)[C@H]1CCC2C3C(CC[C@@]21C)[C@@]1(C)CC[C@H](NCCN)C[C@H]1C[C@H]3O (stereo partly drawn) [Compound 415]
Vascular reactivity (capillary regression) ([3]; 0.001 μg applied): 0 | Vascular reactivity (capillary regression) ([3]; 0.01 μg applied): + | Vascular reactivity (capillary regression) ([3]; 0.1 μg applied): + | Vascular reactivity (capillary regression) ([3]; 1 μg applied): + | Effect on endothelial cord formation ([2]; 0.1 μg/ml): − | Effect on endothelial cord formation ([2]; 1.0 μg/ml): − | Effect on endothelial cord formation ([2]; 10.0 μg/ml): +/T

CC(CCC(=O)O)[C@H]1CCC2C3C[C@@H](O)[C@H]4C[C@@H](NCCN)CC[C@]4(C)C3CC[C@@]21C (stereo partly drawn) [Compound 433]
Pharmacological category in tadpole assay (similarity to a reference steroid) [1]: functionally similar to compound 1437

CC(C)CCCC(C)[C@H]1CCC2C3C(CC[C@@]21C)[C@@]1(C)CC[C@@H](NCCCNCCCCN)C[C@@H]1C[C@H]3O (stereo partly drawn) [Compound 370]
Pharmacological category in tadpole assay (similarity to a reference steroid) [1]: pharmacologic activity similar to that seen for FX 3

COC(=O)CCC(C)[C@H]1CCC2C3C[C@@H](O)[C@H]4C[C@H](NCCN)CC[C@]4(C)C3CC[C@@]21C (stereo partly drawn) [Compound 431]
Pharmacological category in tadpole assay (similarity to a reference steroid) [1]: functionally similar to compound 1437

COC(=O)CCC(C)[C@H]1CCC2C3CC[C@@H]4C[C@H](NCCN)CC[C@]4(C)C3C[C@H](O)[C@@]21C (stereo partly drawn) [Compound 416]
Pharmacological category in tadpole assay (similarity to a reference steroid) [1]: functionally similar to compound 1437

CC(C)CCCC(C)[C@H]1CCC2C3CC[C@H]4C[C@@H](NCCCNCCCCN)CC[C@]4(C)C3CC[C@@]21C (stereo partly drawn) [Compound 303]
Vascular reactivity (capillary regression) ([3]; 1 μg applied): 0

COC(=O)CCC(C)[C@H]1CCC2C3C(CC[C@@]21C)[C@@]1(C)CC[C@H](NCCCNCCCCNCCCN)C[C@H]1C[C@H]3O (stereo partly drawn)
MIC (E. coli): 64 µg/mL (≈ 108 µM)

COC(=O)CCC(C)[C@H]1CCC2C3C(CC[C@@]21C)[C@@]1(C)CC[C@H](NCCCNCCCCNCCCN)C[C@@H]1C[C@H]3O (stereo partly drawn) [Compound 396]
Vascular reactivity (capillary regression) ([3]; 0.001 μg applied): 0 | Vascular reactivity (capillary regression) ([3]; 0.01 μg applied): 0 | Vascular reactivity (capillary regression) ([3]; 0.1 μg applied): 0 | Vascular reactivity (capillary regression) ([3]; 1 μg applied): +

COC(=O)CCC(C)[C@H]1CCC2C3C[C@@H](O)[C@H]4C[C@H](NCCN)CC[C@]4(C)C3CC[C@@]21C (stereo partly drawn)
MIC (E. coli): 32 to 64 µg/mL (≈ 71.3 to 143 µM)

CC(CCC(=O)O)[C@H]1CCC2C3C(CC[C@@]21C)[C@@]1(C)CC[C@H](NCCN)C[C@H]1C[C@H]3O (stereo partly drawn)
Cord Formation, Minimum Effective Concentration [2]: >10 µg/mL

CC(CCC(=O)O)[C@H]1CCC2C3C(CC[C@@]21C)[C@@]1(C)CC[C@H](NCCCNCCCCNCCCN)C[C@H]1C[C@H]3O (stereo partly drawn) [drawing 154]
Cord Formation, Minimum Effective Concentration [2]: >10 µg/mL

CC(CCC(=O)O)[C@H]1CCC2C3C(CC[C@@]21C)[C@@]1(C)CC[C@@H](NCCCNCCCCNCCCN)C[C@H]1C[C@H]3O (stereo partly drawn) [drawing 152]
Cord Formation, Minimum Effective Concentration [2]: >10 µg/mL

CO[C@@H]1[C@H](OC(=O)/C=C/C=C/C=C/C=C/C(=O)O)CC[C@]2(CO2)[C@H]1[C@@]1(C)O[C@@H]1CC=C(C)C [Fumagillin, reference compound]
Concentration that inhibits cord formation [2]: 10 µg/mL | Effect on endothelial cord formation ([2]; 0.1 μg/ml): − | Effect on endothelial cord formation ([2]; 10.0 μg/ml): +

COC(=O)CCC(C)[C@H]1CCC2C3C(CC[C@@]21C)[C@@]1(C)CC[C@@H](NCCCNCCCCN)C[C@H]1C[C@H]3O (stereo partly drawn)
MIC (E. coli): 32 to 64 µg/mL (≈ 59.9 to 120 µM) | MIC (S. aureus): 4 µg/mL (≈ 7.49 µM)

COC(=O)CCC(C)[C@H]1CCC2C3C[C@@H](O)[C@H]4C[C@@H](NCCCNCCCCNCCCN)CC[C@]4(C)C3CC[C@@]21C (stereo partly drawn) [Compound 466]
Pharmacological category in tadpole assay (similarity to a reference steroid) [1]: pharmacologic activity similar to that seen for FX 3

COC(=O)CCC(C)[C@H]1CCC2C3CC[C@H]4C[C@H](NCCCNCCCCNCCCN)CC[C@]4(C)C3CC[C@@]21C (stereo partly drawn) [Compound 458]
Pharmacological category in tadpole assay (similarity to a reference steroid) [1]: pharmacologic activity similar to that seen for FX 3

CC(CCC(=O)O)[C@H]1CCC2C3CC[C@H]4C[C@H](NCCCNCCCCN)CC[C@]4(C)C3CC[C@@]21C (stereo partly drawn) [Compound 318]
Vascular reactivity (capillary regression) ([3]; 1 μg applied): 0

CC(C)CCCC(C)[C@H]1CCC2C3C(CC[C@@]21C)[C@@]1(C)CC[C@@H](N)C[C@@H]1C[C@H]3O (stereo partly drawn) [Compound 1363]
Pharmacological category in tadpole assay (similarity to a reference steroid) [1]: pharmacologic activity similar to Fraction 1

CC(C)CCCC(C)[C@H]1CCC2C3C(CC[C@@]21C)[C@@]1(C)CC[C@H](N)C[C@@H]1C[C@H]3O (stereo partly drawn)
MIC (E. coli): > 256 µg/mL | MIC (S. aureus): 2 µg/mL (≈ 4.95 µM)

CC(CCC(=O)O)[C@H]1CCC2C3C(CC[C@@]21C)[C@@]1(C)CC[C@H](NCCCNCCCCNCCCN)C[C@H]1C[C@H]3O (stereo partly drawn) [drawing 73]
MIC (E. coli): 256 µg/mL (≈ 444 µM) | MIC (S. aureus): 8 µg/mL (≈ 13.9 µM)

CC(CCC(=O)O)[C@H]1CCC2C3C(CC[C@@]21C)[C@@]1(C)CC[C@H](NCCCNCCCCNCCCN)C[C@@H]1C[C@H]3O (stereo partly drawn)
MIC (E. coli): 32 to 64 µg/mL (≈ 55.5 to 111 µM) | MIC (S. aureus): 16 µg/mL (≈ 27.7 µM)

COC(=O)CCC(C)[C@H]1CCC2C3C[C@@H](O)[C@H]4C[C@H](NCCCNCCCCNCCCN)CC[C@]4(C)C3CC[C@@]21C (stereo partly drawn) [Compound 465]
Pharmacological category in tadpole assay (similarity to a reference steroid) [1]: pharmacologic activity similar to that seen for FX 3

COC(=O)CCC(C)[C@H]1CCC2C3C(CC[C@@]21C)[C@@]1(C)CC[C@H](NCCCNCCCCN)C[C@H]1C[C@H]3O (stereo partly drawn)
MIC (E. coli): 256 µg/mL (≈ 480 µM) | MIC (S. aureus): 64 µg/mL (≈ 120 µM)

COC(O)CCC(C)[C@H]1CCC2C3C(CC[C@@]21C)[C@@]1(C)CC[C@H](NCCCNCCCCNCCCN)C[C@H]1C[C@H]3O (stereo partly drawn)
Cord Formation, Minimum Effective Concentration [2]: 10 µg/mL

CC(CCC(=O)O)[C@H]1CCC2C3C(CC[C@@]21C)[C@@]1(C)CC[C@H](NCCCNCCCCN)C[C@@H]1C[C@H]3O (stereo partly drawn) [Compound 381]
Vascular reactivity (capillary regression) ([3]; 1 μg applied): 0

COC(=O)CCC(C)[C@H]1CCC2C3C(CC[C@@]21C)[C@@]1(C)CC[C@@H](NCCN)C[C@H]1C[C@H]3O (stereo partly drawn) [drawing 118]
Cord Formation, Minimum Effective Concentration [2]: 10 µg/mL

Reference: patent publication US6962909B2, “Treatment of neovascularization disorders with squalimine” (Genaera Corporation, priority 1995, dated 2005)
